Our source for the cytotoxic activity and EC50 values is US12552846B2, “Modified BCL9 mimetic peptides” (Sapience Therapeutics, Inc., priority 2019, dated 2026).

Square brackets hold non-standard residues; d marks the D form. Peptide text beside a SMILES is read from it. * marks the point of attachment. dOrn = NCCC[C@@H](N)C(=O)O; Octanoyl = CCCCCCCC(=O)*

The test system of this data set is HL60 promyelocytic leukemia cells. Nature of the data set: Cytotoxicity assay in HL60 cells (Annexin V FITC / PI flow cytometry). Format: cell-based. Conditions: 48 hours; for EC50: 0-80 μM, % Viability (Annexin V low, PI low). The gist of the method: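 HL60 cells at 3.5×10^3/well in RPMI + 1.5% FBS exposed to peptides at 0-80 μM final for 48 h at 37 °C. Viability by flow cytometry after Annexin V-FITC/PI staining, gated on FSC vs SSC. % Viability is the fraction that is Annexin V^low and PI^low.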
Background: A flow cytometer gives signals particle by particle.

Consider `CC(C)C[C@@H](NC(=O)[C@@H](C)NC(=O)[C@@H](C)NC(=O)[C@@H](CC(C)C)NC(=O)[C@@H](CCC(N)=O)NC(=O)[C@@H](C)NC(=O)[C@@H](C)NC(=O)[C@@H](CC(C)C)NC(=O)[C@@H](Cc1c[nH]c2ccccc12)NC(=O)[C@@H](Cc1c[nH]c2ccccc12)NC(=O)CNC(=O)[C@@H](CCCNC(=N)N)NC(=O)CNC(=O)[C@@H](CC(=O)O)NC(=O)[C@@H](CO)NC(=O)[C@H]1CCCN1)C(=O)N[C@H](C)C(=O)N[C@H](CCC(N)=O)C(=O)N[C@H](CC(C)C)C(=O)N[C@H](C)C(=O)N[C@H](CCCCN)C(=O)N[C@H](CC(C)C)C(=O)N[C@@H](C(=O)N1CCC[C@@H]1C(=O)N[C@@H](C(=O)O)C(C)C)[C@H](C)O` [BCL-134, reference compound] (H-[dP][dS][dD]G[dR]G[dW][dW][dL][dA][dA][dQ][dL][dA][dA][dL][dA][dQ][dL][dA][dK][dL][dT][dP][dV]-OH; N-terminus and C-terminus assumed), for which the cytotoxic activity result is reported as “Lack of cytotoxic activity” and the EC50 was more than 80000 nM.

Consider `CCCCCCCC(=O)N1CCC[C@@H]1C(=O)N[C@H](CO)C(=O)N[C@H](CC(=O)O)C(=O)NCC(=O)N[C@H](CCCNC(=N)N)C(=O)NCC(=O)N[C@H](Cc1c[nH]c2ccccc12)C(=O)N[C@H](Cc1c[nH]c2ccccc12)C(=O)N[C@H](CC(C)C)C(=O)N[C@H](C)C(=O)N[C@H](CCCNC(=N)N)C(=O)N[C@H](CCC(N)=O)C(=O)N[C@H](CC(C)C)C(=O)N[C@H](C)C(=O)N[C@H](CCCNC(=N)N)C(=O)N[C@H](CC(C)C)C(=O)N[C@H](C)C(=O)N[C@H](CCC(N)=O)C(=O)N[C@H](CC(C)C)C(=O)N[C@H](C)C(=O)N[C@H](CCCCN)C(=O)N[C@H](CC(C)C)C(=O)N[C@@H](C(=O)N1CCC[C@@H]1C(=O)N[C@@H](C(=O)O)C(C)C)[C@H](C)O` [BCL-135] (Octanoyl-[dP][dS][dD]G[dR]G[dW][dW][dL][dA][dR][dQ][dL][dA][dR][dL][dA][dQ][dL][dA][dK][dL][dT][dP][dV]-OH; C-terminus assumed), for which the concentration giving a half-maximal response (EC50) is 2000 to 10000 nM. The compound `CCCCCCCC(=O)N1CCC[C@@H]1C(=O)N[C@H](CO)C(=O)N[C@H](CC(=O)O)C(=O)NCC(=O)N[C@H](CCCNC(=N)N)C(=O)NCC(=O)N[C@H](Cc1c[nH]c2ccccc12)C(=O)N[C@H](Cc1c[nH]c2ccccc12)C(=O)N[C@H](CC(C)C)C(=O)N[C@@H](C(=O)N[C@H](CCCNC(=N)N)C(=O)N[C@H](CCC(N)=O)C(=O)N[C@H](CC(C)C)C(=O)N[C@H](C)C(=O)N[C@H](CCCNC(=N)N)C(=O)N[C@H](CC(C)C)C(=O)N[C@H](C)C(=O)N[C@H](CCC(N)=O)C(=O)N[C@H](CC(C)C)C(=O)N[C@H](C)C(=O)N[C@H](CCCCN)C(=O)N[C@H](CC(C)C)C(=O)N[C@@H](C(=O)N1CCC[C@@H]1C(=O)N[C@@H](C(=O)O)C(C)C)[C@H](C)O)C(C)C` [BCL-136a] (Octanoyl-[dP][dS][dD]G[dR]G[dW][dW][dL][dV][dR][dQ][dL][dA][dR][dL][dA][dQ][dL][dA][dK][dL][dT][dP][dV]-OH; C-terminus assumed) registered a half-maximal effective concentration (EC50) of less than 2000 nM. In turn, `CC(C)C[C@@H](NC(=O)[C@@H](CCCN)NC(=O)[C@@H](C)NC(=O)[C@@H](CC(C)C)NC(=O)[C@@H](CCC(N)=O)NC(=O)[C@@H](CCCN)NC(=O)[C@@H](C)NC(=O)[C@@H](CC(C)C)NC(=O)[C@@H](Cc1c[nH]c2ccccc12)NC(=O)[C@@H](Cc1c[nH]c2ccccc12)NC(=O)CNC(=O)[C@@H](CCCNC(=N)N)NC(=O)CNC(=O)[C@@H](CC(=O)O)NC(=O)[C@@H](CO)NC(=O)[C@H]1CCCN1)C(=O)N[C@H](C)C(=O)N[C@H](CCC(N)=O)C(=O)N[C@H](CC(C)C)C(=O)N[C@H](C)C(=O)N[C@H](CCCN)C(=O)N[C@H](CC(C)C)C(=O)N[C@@H](C(=O)N1CCC[C@@H]1C(=O)N[C@@H](C(=O)O)C(C)C)[C@H](C)O` [BCL-137] (H-[dP][dS][dD]G[dR]G[dW][dW][dL][dA][dOrn][dQ][dL][dA][dOrn][dL][dA][dQ][dL][dA][dOrn][dL][dT][dP][dV]-OH; N-terminus and C-terminus assumed) had an EC50 of less than 2000 nM.

For the compound `CCCCCCCC(=O)N[C@H](CC(C)C)C(=O)N[C@@H](C(=O)N[C@H](CCCNC(=N)N)C(=O)N[C@H](CCC(N)=O)C(=O)N[C@H](CC(C)C)C(=O)N[C@H](C)C(=O)N[C@H](CCCNC(=N)N)C(=O)N[C@H](CC(C)C)C(=O)N[C@H](C)C(=O)N[C@H](CCC(N)=O)C(=O)N[C@H](CC(C)C)C(=O)N[C@H](C)C(=O)N[C@H](CCCCN)C(=O)N[C@H](CC(C)C)C(=O)N[C@@H](C(=O)N1CCC[C@@H]1C(=O)N[C@@H](C(=O)O)C(C)C)[C@H](C)O)C(C)C` [BCL-138] (Octanoyl-[dL][dV][dR][dQ][dL][dA][dR][dL][dA][dQ][dL][dA][dK][dL][dT][dP][dV]-OH; C-terminus assumed), the cytotoxic activity entry is reported as “Lack of cytotoxic activity” and the EC50 was more than 80000 nM. On to `CC(C)C[C@@H](NC(=O)[C@@H](CCCNC(=N)N)NC(=O)[C@@H](C)NC(=O)[C@@H](CC(C)C)NC(=O)[C@@H](CCC(N)=O)NC(=O)[C@@H](CCCNC(=N)N)NC(=O)[C@H](NC(=O)[C@@H](CC(C)C)NC(=O)[C@@H](Cc1c[nH]c2ccccc12)NC(=O)[C@H](Cc1c[nH]c2ccccc12)NC(=O)CNC(=O)[C@@H](CCCNC(=N)N)NC(=O)CNC(=O)[C@@H](CC(=O)O)NC(=O)[C@@H](CO)NC(=O)[C@H]1CCCN1)C(C)C)C(=O)N[C@H](C)C(=O)N[C@H](CCC(N)=O)C(=O)N[C@H](CC(C)C)C(=O)N[C@H](C)C(=O)N[C@H](CCCCN)C(=O)N[C@H](CC(C)C)C(=O)N[C@@H](C(=O)N1CCC[C@@H]1C(=O)N[C@@H](C(=O)O)C(C)C)[C@H](C)O` [BCL-139] (H-[dP][dS][dD]G[dR]GW[dW][dL][dV][dR][dQ][dL][dA][dR][dL][dA][dQ][dL][dA][dK][dL][dT][dP][dV]-OH; N-terminus and C-terminus assumed), for which the half-maximal effective concentration (EC50) is less than 2000 nM.

The term EC50 denotes the midpoint of the concentration-response curve. Read a high EC50 as a need for much substance.
